From US20250026769A1, “PAPD5 INHIBITORS AND METHODS OF USE THEREOF” (The Children's Medical Center Corporation, priority 2021, published 2025)
pIC50: −log10 of the molar value. Read-outs that look alike come from different tables or passages of the source.

Assays:
[1] = tested on: TERC 3′ end processing in DC patient iPSCs; assay: TERC 3′ end processing by RACE in DC patient / PARN-mutant iPSCs; type: cell-based, human; settings: for minimal effective concentration: Homo sapiens, iPSC, patient iPSCs, concentration class at which activity is seen, read-out: iPSC-based RACE activity
Protocol: (§1) Compound 266A had activity ˜2-logs higher in the in vitro RNA oligoadenylation assay compared to the parental compound cmpd. 1, approximating the activity of RG7834 (FIG. 7). […] 1. Compounds 295A and 296A had activity 2-3 logs higher in DC patient iPSCs, showing TERC maturation at 1 nM, similar to RG7834 (FIG. 6). […] Referring to Table 1D, “+” refers to activity at 1 μM, “++” refers to activity above 1 nM and below 1 μM, and “+++” refers to activity at <1 nM, “ND” refers to not determined.

[2] = target: T1, rPAPD5 (Homo sapiens, UniProt Q8NDF8); assay: differential scanning fluorimetry (DSF) binding and stabilization of rPAPD5; settings: for ΔTm at 1 µM: 1 μM test compound (Table 2a), read-out: ΔTm at 1 μM; for ΔTm at 100 µM: 100 μM test compound, read-out: ΔTm at 100 μM
T1 construct: made in house
T1 sequence (Q8NDF8 68-698 isoform Q8NDF8-5 limits assumed): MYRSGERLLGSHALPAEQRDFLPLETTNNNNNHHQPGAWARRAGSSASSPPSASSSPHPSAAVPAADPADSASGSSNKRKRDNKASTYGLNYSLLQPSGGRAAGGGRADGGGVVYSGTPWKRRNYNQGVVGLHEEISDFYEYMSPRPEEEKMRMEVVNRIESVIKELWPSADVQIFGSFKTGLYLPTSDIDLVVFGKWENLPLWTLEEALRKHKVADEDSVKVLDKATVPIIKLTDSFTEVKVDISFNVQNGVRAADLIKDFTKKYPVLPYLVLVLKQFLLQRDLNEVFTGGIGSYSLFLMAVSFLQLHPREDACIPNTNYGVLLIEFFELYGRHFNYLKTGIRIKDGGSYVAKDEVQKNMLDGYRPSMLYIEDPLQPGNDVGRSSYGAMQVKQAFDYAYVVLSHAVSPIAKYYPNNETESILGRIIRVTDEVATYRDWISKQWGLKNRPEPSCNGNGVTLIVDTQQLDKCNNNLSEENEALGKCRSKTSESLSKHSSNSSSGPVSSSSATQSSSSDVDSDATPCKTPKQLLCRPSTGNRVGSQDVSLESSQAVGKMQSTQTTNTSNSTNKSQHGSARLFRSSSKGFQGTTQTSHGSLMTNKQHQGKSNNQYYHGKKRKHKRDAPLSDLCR
Summary of the method: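 Differential scanning fluorimetry was used to measure how test compounds bind and thermally stabilize rPAPD5. The reaction contained SYPRO orange dye diluted 1:5000 in […] of buffer with […], 25 mM Tris-HCl, 5 mM MgCl2 and 50 mM KCl. ΔTm was calculated relative to a DMSO control.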

[3] = tested on: telomere length in DC patient iPSCs; assay: telomere length / telomere elongation in DC patient iPSCs; type: cell-based, human; settings: for minimal effective concentration: Homo sapiens, iPSC, patient iPSCs, concentration class at which activity is seen, read-out: iPSC-based Telomere length
Protocol: as §1

[4] = tested on: hepatitis B surface antigen (HBSAg) from HepG2.2.15 cells, a hepatitis B virus-expressing cell line; assay: HBsAg ELISA in supernatant of HepG2.2.15 cells; type: cell-based; settings: HepG2.2.15, 96 h
Protocol: HepG2.2.15 cells, a hepatitis B virus-expressing cell line (Sells, M. A. et al., PNAS, 1987), were plated at 50,000 cells/well in DMEM/F12 media (Gibco) with 10% fetal bovine serum (Omega Scientific) in a 24-well or 96-well plate (Corning), in 2-3 replicates for each test compound/concentration plus controls, and incubated in a humidified 5% CO2 chamber at 37° C. The next day, media was aspirated, cells were washed once with phosphate buffered saline, pH7.4 (Gibco), and 1 mL DMEM/12 media was replaced. Test compounds were added in 3-fold dilutions from up to 100 μM down to 333 pM, with vehicle (dimethylsulfoxide (Sigma)) as a control. After four days of culture in a humidified 5% CO2 chamber at 37° C., plates were spun down in a centrifuge at 300 g for 10 minutes at room temperature. Supernatant from each well was collected and either frozen at −20° C. or used directly for quantitation of hepatitis B surface antigen (HBSAg) in an enzyme-linked immunosorbent assay (ELISA). The supernatant was tested using the HBSAg ELISA kit (Abnova Cat. No KA0286) per the manufacturer's instructions. Results of replicates were averaged and nonlinear curve fitting was used to determine the half maximal inhibitory concentration (IC50) for each test compound.

[5] = 10 μM test compound (Table 2a), read-out: ΔTm at 10 μM
[6] = 10 μM test compound, shift vs DMSO control, read-out: ΔTm (Table 2, starred: the compound was tested at 10 μM)

SMILES | minimal effective concentration [1] [µM] | ΔTm at 1 µM [2] [°C] | ΔTm at 10 µM [2, 5] [°C] | ΔTm at 100 µM ([2]; shift vs DMSO control) [°C] | minimal effective concentration [3] [µM] | ΔTm at 10 µM [2, 6] [°C] | concentration showing maturation of TERC 3′ end processing by RACE ([1]; DC patient iPSCs) [nM] | pIC50 [4] | concentration at which telomere elongation was observed ([3]; DC patient iPSCs, after 3-4 weeks of cell culture) [nM]
Cc1nc2ccc(Cl)cc2c(Nc2ccc(Cl)cc2C(=O)O)c1S(=O)(=O)N1CCSCC1 [Compound 423A, 5-chloro-2-[(6-chloro-2-methyl-3-thiomorpholinosulfonyl-4-quinolyl)amino]benzoic acid] | < 0.001 | > 5 | > 5 | > 5 | < 0.001 |  |  |  | 
O=C(O)c1cc(Cl)ccc1Nc1c(S(=O)(=O)N2CCSCC2)cnc2cc(Cl)c(Cl)cc12 [Compound 414A, 5-chloro-2-[(6,7-dichloro-3-thiomorpholinosulfonyl-4-quinolyl)amino]benzoic acid] | < 0.001 | > 5 | > 5 |  | < 0.001 | > 5 |  |  | 
Cl.O=C(O)c1cc(Cl)ccc1Nc1c(-c2ncco2)cnc2ccc(Cl)cc12 [Compound 295A, 5-chloro-2-[(6-chloro-3-oxazol-2-yl-4-quinolyl)amino]benzoic acid] |  |  |  | > 5 |  |  | 1 | 6.50 | 1
O=C(O)c1cc(Cl)ccc1Nc1c(S(=O)(=O)N2CCSCC2)cnc2cc(C(F)(F)F)c(Cl)cc12 [Compound 413A, 5-chloro-2-[[6-chloro-3-thiomorpholinosulfonyl-7-(trifluoromethyl)-4-quinolyl]amino]benzoic acid] | < 0.001 | 1 to 5 | > 5 |  | < 0.001 | > 5 |  |  | 
CN1CCN(c2cnc3ccc(Cl)cc3c2Nc2ccc(Cl)cc2C(=O)O)CC1 [Compound 361A, 5-chloro-2-[[6-chloro-3-(4-methylpiperazin-1-yl)-4-quinolyl]amino]benzoic acid] | 0.001 to 1 | > 5 | > 5 | > 5 | < 0.001 |  |  | 6.51 | 
COc1cc(Cl)cc2c(Nc3ccc(Cl)cc3C(=O)O)c(S(=O)(=O)N3CCSCC3)cnc12 [Compound 418A, 5-chloro-2-[(6-chloro-8-methoxy-3-thiomorpholinosulfonyl-4-quinolyl)amino]benzoic acid] | < 0.001 | > 5 | > 5 | > 5 | < 0.001 |  |  | 6.95 | 
O=C(O)c1cc(Cl)ccc1Nc1c(N2CCC(O)CC2)cnc2ccc(Cl)cc12 [Compound 399A, 5-chloro-2-[[6-chloro-3-(4-hydroxy-1-piperidyl)-4-quinolyl]amino]benzoic acid] | < 0.001 | > 5 | > 5 | > 5 | < 0.001 |  |  |  | 
O=C(O)c1cc(Cl)ccc1Nc1c(C2CCC(F)(F)CC2)cnc2ccc(Cl)cc12 [Compound 343A, 5-chloro-2-[[6-chloro-3-(4,4-difluorocyclohexyl)-4-quinolyl]amino]benzoic acid] | < 0.001 | > 5 | > 5 |  | < 0.001 | > 5 |  | 7.07 | 
O=C(O)c1cc(Cl)ccc1Nc1c(-c2cn[nH]c2)cnc2ccc(Cl)cc12 [Compound 354A, 5-chloro-2-[[6-chloro-3-(1H-pyrazol-4-yl)-4-quinolyl]amino]benzoic acid] | 1 | 1 to 5 | > 5 |  |  | > 5 |  | 5.48 | 
O=C(O)c1cc(Cl)ccc1Nc1c(C2CCSCC2)cnc2ccc(Cl)cc12 [Compound 341A, 5-chloro-2-[(6-chloro-3-tetrahydrothiopyran-4-yl-4-quinolyl)amino]benzoic acid] | 0.001 to 1 | > 5 | > 5 |  |  | > 5 |  | 7.08 | 
O=C(O)c1cc(Cl)ccc1Nc1c(N2CCSCC2)cnc2ccc(Cl)cc12 [Compound 346A, 5-chloro-2-[(6-chloro-3-thiomorpholino-4-quinolyl)amino]benzoic acid] | 0.001 to 1 | 1 to 5 | > 5 | > 5 |  |  |  | 7.06 | 
O=C(O)c1cc(Cl)ccc1Nc1c(S(=O)(=O)N2CCSCC2)cnc2cc(Br)c(Cl)cc12 [Compound 416A, 2-[(7-bromo-6-chloro-3-thiomorpholinosulfonyl-4-quinolyl)amino]-5-chloro-benzoic acid] | < 0.001 | > 5 | > 5 |  | < 0.001 | > 5 |  |  | 
O=C(O)c1cc(Cl)ccc1Nc1c(-c2cnco2)cnc2ccc(Cl)cc12 [Compound 353A, 5-chloro-2-[(6-chloro-3-oxazol-5-yl-4-quinolyl)amino]benzoic acid] | 0.001 to 1 | 1 to 5 | > 5 | > 5 | < 0.001 |  |  | 6.36 | 
O=C(O)c1cc(Cl)ccc1Nc1c(-c2ccncc2)cnc2ccc(Cl)cc12 [Compound 391A, 5-chloro-2-[[6-chloro-3-(4-pyridyl)-4-quinolyl]amino]benzoic acid] | 0.001 to 1 | 1 to 5 | > 5 | > 5 | < 0.001 |  |  | 6.13 | 
O=C(O)c1cc(Cl)ccc1Nc1c(S(=O)(=O)N2CCSCC2)cnc2ccc(Cl)cc12 [Compound 349A, 5-chloro-2-[(6-chloro-3-thiomorpholinosulfonyl-4-quinolyl)amino]benzoic acid] | 0.001 to 1 | > 5 | > 5 | > 5 | < 0.001 |  |  | 6.80 | 
O=C(O)c1cc(Cl)ccc1Nc1c(N2CCC(=NO)CC2)cnc2ccc(Cl)cc12 [Compound 376A, 5-chloro-2-[[6-chloro-3-(4-hydroxyimino-1-piperidyl)-4-quinolyl]amino]benzoic acid] | 1 | > 5 | > 5 | > 5 |  |  |  | 7.00 | 
Cc1cc2ncc(S(=O)(=O)N3CCSCC3)c(Nc3ccc(Cl)cc3C(=O)O)c2cc1Cl [Compound 411A, 5-chloro-2-[(6-chloro-7-methyl-3-thiomorpholinosulfonyl-4-quinolyl)amino]benzoic acid] | < 0.001 | > 5 | > 5 |  | < 0.001 | > 5 |  |  | 
O=C1CCN(c2cnc3ccc(Cl)cc3c2Nc2ccc(Cl)cc2C(=O)O)CC1 [Compound 395A, 5-chloro-2-[[6-chloro-3-(4-oxo-1-piperidyl)-4-quinolyl]amino]benzoic acid] | 1 | > 5 | > 5 | > 5 | < 0.001 |  |  |  | 
O=C(O)c1cc(Cl)ccc1Nc1c(S(=O)(=O)N2CCSCC2)cnc2c(Br)cc(Cl)cc12 [Compound 422A, 2-[(8-bromo-6-chloro-3-thiomorpholinosulfonyl-4-quinolyl)amino]-5-chloro-benzoic acid] | < 0.001 | > 5 | > 5 |  | < 0.001 | > 5 |  |  | 
O=C(O)c1cc(Cl)ccc1Nc1c(S(=O)(=O)N2CCSCC2)cnc2c(C(F)(F)F)cc(Cl)cc12 [Compound 419A, 5-chloro-2-[[6-chloro-3-thiomorpholinosulfonyl-8-(trifluoromethyl)-4-quinolyl]amino]benzoic acid] | < 0.001 | > 5 | > 5 | < 1 | < 0.001 |  |  |  | 
